# Experiments:
# [1] = target: T1, CYP2C9 (Homo sapiens, UniProt P11712); assay: Inhibition of human liver microsomal P450 subenzyme CYP2C9; assay type: in vitro ADME; conditions: human liver microsomes, diclofenac metabolic site, 30 minutes incubation; read-out: 2C9 IC50
# T1 construct: Human liver microsomes (Corning Gentest, Cat No. 452161, Lot No. 6123001, 33 Donors); tissue Corning Gentest 452161; host or cells: human liver microsomes, pool of 33 donors
# Procedure: (§1) The inhibition effect of the compound of the present invention on the enzymatic activity of human liver microsomal P450 subenzymes CYP2C9 and 2C19 was determined by the following experimental method.
# (§2) 6. CYP probe substrate for 2C9 (Diclofenac/4 μM, SIGMA, Cat No. D6899-10G) and CYP probe substrate for 2C19 ((S)-Mephenytoin/20 μM, J&K Scientific Ltd., CatNo. 303768); positive control inhibitor for 2C9 ([…], SIGMA, Cat No. 526-08-9) and positive control inhibitor for 2C19 (Ticlopidine, SIGMA, Cat No. T6654-1G).
# (§3) 100 mM PBS buffer solution was formulated. 2.5 mg/mL microsome solution, 15 mM MgCl2 solution and 5 mM NADPH solution were formulated with the buffer solution. 30 mM stock solution was diluted with DMSO into a serial solution I with concentrations of 10 mM, 3 mM, 1 mM, 0.3 mM, 0.1 mM, 0.03 mM, […] and 0 mM. The above serial solution I was diluted for 200 times with the phosphate buffer solution (PBS) to obtain a serial test solution II (150, 50, 15, 5, 1.5, 0.15, 0.015, 0 μM). […]
# (§4) The data were calculated by Graphpad Prism to obtain the IC50 values of the compound for the diclofenac metabolic site of CYP2C9 and (S)-mephenytoin metabolic site of 2C19. which are shown in Table 3.
# [2] = test system: MV-4-11 cells; assay: Cell proliferation experiment (intracellular ATP, CellTiter-Glo), MV-4-11; assay type: cell-based; conditions: Homo sapiens, MV4-11, 72 h; MV-4-11 cells, incubated 3 days, CellTiter-Glo; read-out: MV-4-11 IC50
# Procedure: (§5) The following method evaluates the inhibition effect of the compound of the present invention on the proliferation of AMO-1 and MV-4-11 cells according to IC50 value by detecting intracellular ATP content. The experimental method is briefly described as follows.
# (§6) AMO-1 cells were cultured in RPMI1640 medium (containing 20% FBS), and MV-4-11 cells were cultured in IMDM medium (containing 10% FBS). The cells were passaged for 2 to 3 times a week, with a passage ratio of 1:4 or 1:6. During the passage, the cells were transferred to a centrifuge tube and centrifuged at 1200 rpm for 3 minutes. The supernatant was discarded, and fresh medium was added to resuspend the cells. […] 100 μL of complete medium was added to the periphery of the 96-well plate. The plate was incubated in an incubator for 24 hours (37° C., 5% CO2).
# (§7) The test sample was diluted to 20 mM with DMSO, and then diluted to 9 concentrations by diluting in 4-fold gradient. Blank and control wells were set. 5 μL of the test compound solution formulated as gradient concentration was added to 95 μL of fresh medium. 10 µL of the above drug-containing medium solution was added to the plate. The plate was incubated in an incubator for 3 days (37° C., 5% CO2). In the 96-well cell culture plate, 50 μL of CellTiter-Glo reagent was added to each well, and the plate was left to stand in the dark at room temperature for 5 to 10 minutes. The chemiluminescence signal value was read in PHERAstar, and the data was processed by GraphPad software.
# [3] = target: T2, MCL-1 protein (Homo sapiens, UniProt Q07820); assay: MCL-1 protein binding experiment (HTRF, MCL-1/Bim); conditions: for inhibition at up to 10 µM: HTRF MCL-1/Bim binding, initial concentration 10 μM, read-out: Maximum inhibition rate (%); for Ki: HTRF, 0.1 nM His-MCL-1, 2.5 nM bio-Bim, room temperature
# T2 construct: Bim peptide bought from R&D, 3526/1 NA
# Procedure: The following method was used to determine the binding ability of the compound of the present invention to MCL-1 protein. The experimental method is briefly described as follows.
# MCL-1 inhibitors can bind to MCL-1 protein to prevent the binding of MCL-1 to Bim protein. The experiment evaluates the binding ability of MCL-1 inhibitor to MCL-1 protein by detecting the binding of MCL-1 to Bim protein through HTRF method, and the activity of the compound was evaluated according to the Ki value.
# The mixture was incubated at room temperature for 2 hours, followed by the detection of fluorescence signals at 620 nm and 665 nm by PHERAstar. The data was processed by GraphPad software.
# [4] = test system: AMO-1 cells; assay: Cell proliferation experiment (intracellular ATP, CellTiter-Glo), AMO-1; assay type: cell-based; conditions: Homo sapiens, AMO1, 72 h; AMO-1 cells, incubated 3 days, CellTiter-Glo; read-out: AMO-1 IC50
# Procedure: as §5
# 1. AMO-1, human bone marrow plasmacytoma (Nanjing Cobioer Biosciences Co., Ltd., CBP60242)
# as §6, §7
# [5] = target: T3, 2C19 (Homo sapiens, UniProt P33261); assay: Inhibition of human liver microsomal P450 subenzyme CYP2C19; assay type: in vitro ADME; conditions: human liver microsomes, (S)-mephenytoin metabolic site, 30 minutes incubation
# T3 construct: Human liver microsomes (Corning Gentest, Cat No. 452161, Lot No. 6123001, 33 Donors); tissue Corning Gentest 452161; host or cells: human liver microsomes, pool of 33 donors
# Procedure: as §1, §2, §3, §4
# T2 sequence (Q07820 171-327): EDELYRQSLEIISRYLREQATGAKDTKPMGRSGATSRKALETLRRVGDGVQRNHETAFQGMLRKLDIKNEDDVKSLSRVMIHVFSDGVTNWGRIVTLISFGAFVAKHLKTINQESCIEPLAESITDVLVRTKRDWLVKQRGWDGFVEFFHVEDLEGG
# T1 sequence (P11712 whole entry): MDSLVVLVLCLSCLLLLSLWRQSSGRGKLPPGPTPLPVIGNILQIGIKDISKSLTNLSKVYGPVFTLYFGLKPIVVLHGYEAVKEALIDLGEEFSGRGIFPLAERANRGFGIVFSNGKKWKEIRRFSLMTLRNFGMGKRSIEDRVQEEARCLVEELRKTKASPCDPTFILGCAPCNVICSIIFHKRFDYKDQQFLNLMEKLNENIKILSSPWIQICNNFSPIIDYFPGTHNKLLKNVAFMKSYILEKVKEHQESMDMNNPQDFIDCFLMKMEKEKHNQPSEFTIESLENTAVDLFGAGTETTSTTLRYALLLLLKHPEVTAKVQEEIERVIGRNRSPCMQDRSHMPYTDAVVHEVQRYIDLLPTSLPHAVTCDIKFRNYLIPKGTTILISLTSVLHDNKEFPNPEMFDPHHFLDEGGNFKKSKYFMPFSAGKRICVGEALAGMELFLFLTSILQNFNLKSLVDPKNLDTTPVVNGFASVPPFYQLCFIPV
# T3 sequence (P33261 whole entry): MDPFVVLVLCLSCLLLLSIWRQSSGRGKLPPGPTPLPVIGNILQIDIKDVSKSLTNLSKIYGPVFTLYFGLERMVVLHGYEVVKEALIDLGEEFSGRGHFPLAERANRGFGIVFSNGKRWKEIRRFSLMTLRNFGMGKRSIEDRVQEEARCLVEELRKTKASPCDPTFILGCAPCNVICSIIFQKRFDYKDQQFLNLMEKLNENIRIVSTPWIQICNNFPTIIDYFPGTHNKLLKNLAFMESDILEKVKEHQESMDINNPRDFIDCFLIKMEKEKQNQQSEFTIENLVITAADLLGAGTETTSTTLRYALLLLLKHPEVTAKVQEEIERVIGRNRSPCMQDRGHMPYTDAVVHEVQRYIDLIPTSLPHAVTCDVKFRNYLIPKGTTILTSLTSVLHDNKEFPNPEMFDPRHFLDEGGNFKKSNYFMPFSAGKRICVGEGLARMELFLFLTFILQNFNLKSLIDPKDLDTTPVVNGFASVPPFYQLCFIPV
SMILES,IC50 [1] [nM],IC50 [2] [nM],inhibition at up to 10 µM [3] [%],Ki [3] [nM],IC50 [4] [nM],IC50 [5] [nM]
"Cc1c(C(=O)O)n2c3ccc(Cl)c(c13)-c1c(nn(C)c1C)CSCc1cc(n(C)n1)CSc1cc3c(c(c1)OCCC2)CCC3 (single isomer, unassigned) [Example 13-1, (Ra)-17-Chloro-5,13,14,22-tetramethyl-28-oxa-2,9-dithia-5,6,12,13,24-pentaazaheptacyclo[27.6.1.1^4,7.0^11,15.0^16,21.0^20,24.0^30,34]heptatriaconta-1(36),4(37),6,11,14,16,18,20,22,29,34-undecaene-23-carboxylic acid]",16600,26,100,0.16,26,> 30000
"Cc1c(C(=O)O)n2c3ccc(Cl)c(c13)-c1c(nn(C)c1C)CSCc1cc(n(C)n1)CSc1cc(cc3c1CCC3)OCCC2 (single isomer, unassigned) [Example 12-1, (Ra)-17-Chloro-5,13,14,22-tetramethyl-28-oxa-2,9-dithia-5,6,12,13,24-pentaazaheptacyclo[27.6.1.1^4,7.0^11,15.0^16,21.0^20,24.0^30,35]heptatriaconta-1(36),4(37),6,11,14,16,18,20,22,29,31(35)-undecaene-23-carboxylic acid]",> 30000,36,100,0.24,34,> 30000

# From patent publication US20220041623A1, “INDOLE MACROCYCLIC DERIVATIVE, PREPARATION METHOD THEREOF AND APPLICATION THEREOF IN MEDICINE” (JIANGSU HENGRUI MEDICINE CO., LTD., priority 2018, published 2022)
